Experimental data published in patent US20040024024A1, “Aromatic sulfone hydroxamates and their use as protease inhibitors” (priority 2001, published 2004).

How the values were obtained:
Human recombinant MMP-2 = target: T1, Human recombinant MMP-2 (Homo sapiens, UniProt P08253); assay: In vitro MMP inhibition, IC50 determination (fluorogenic substrate I); type: biochemical
T1 construct: made in house; host or cells: MMP-2-transfected p2AHT2 cells
T1 sequence (P08253 110-660): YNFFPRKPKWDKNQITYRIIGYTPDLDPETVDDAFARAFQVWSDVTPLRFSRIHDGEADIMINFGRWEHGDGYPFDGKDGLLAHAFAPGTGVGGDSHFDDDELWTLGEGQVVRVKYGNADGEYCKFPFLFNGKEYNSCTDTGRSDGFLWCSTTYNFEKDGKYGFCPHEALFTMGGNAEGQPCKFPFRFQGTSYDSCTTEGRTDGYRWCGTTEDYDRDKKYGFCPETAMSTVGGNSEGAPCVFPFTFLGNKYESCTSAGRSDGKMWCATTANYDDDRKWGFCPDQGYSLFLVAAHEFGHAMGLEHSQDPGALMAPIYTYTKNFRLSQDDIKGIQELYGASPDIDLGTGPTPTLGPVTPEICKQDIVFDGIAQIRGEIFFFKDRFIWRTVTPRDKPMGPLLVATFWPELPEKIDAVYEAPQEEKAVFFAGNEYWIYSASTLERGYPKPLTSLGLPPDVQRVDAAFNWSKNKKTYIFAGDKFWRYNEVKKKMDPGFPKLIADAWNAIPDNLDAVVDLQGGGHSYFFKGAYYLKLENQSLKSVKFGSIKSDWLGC
Method: (§1) Several hydroxamates and salts thereof were analyzed in in vitro assays to determine their ability to inhibit the MMP cleavage of peptide substrates. Inhibition (Ki) and IC50 constants were calculated from the assayed hydroxamate-MMP interactions.
(§2) Human recombinant MMP-1, MMP-2, MMP-9, MMP-13, and MMP-14 were used in this assay. All enzymes were prepared in Assignee's laboratories following usual laboratory procedures. Protocols for the preparation and use of these enzymes are available in the scientific literature. See, e.g., Enzyme Nomenclature (Academic Press, San Diego, Calif., 1992) (and the citations therein). See also, Frije et al., J. Biol. Chem., 26(24), 16766-73 (1994).
The MMP-2 proenzyme was purified by gelatin Sepharose chromatography from MMP-2-transfected p2AHT2 cells provided by Dr. Gregory Goldberg of Washington University (St. Louis, Mo.).
(§3) All MMPs were activated using 4-aminophenylmercuric acetate (“APMA”, Sigma Chemical, St. Louis, Mo.) or trypsin. MMP-9 also was activated using human recombinant MMP-3 (purified in Assignee's laboratory following standard cloning and purification techniques).
(§4) Two fluorogenic, methoxycoumarin-containing polypeptide substrates were used in the MMP inhibition assays:
(§5) MCA-ProLeuGlyLeuDpaAlaArgNH2 (I)
(§6) Here, “Dpa” is 3-(2,4-dinitrophenyl)-L-2,3-diaminopropionyl group, and “MCA” is 7-methoxycoumarin-4-yl acetyl. Substrate (I) was purchased from Baychem (Redwood City, Calif.), and substrate II was prepared Assignee's laboratory. Substrate I was used in the IC50 determination assays, while substrate II was used in the Ki determination assays. In the absence of MMP inhibitory activity, either substrate is cleaved at the Gly-Leu peptide bond. This cleavage separates the highly fluorogenic peptide from the 2,4-dinitrophenyl quencher, thus resulting in increase of fluorescent intensity.
(§7) The stock solutions of the assayed hydroxamates (or salts thereof) were prepared in 1% dimethyl sulfoxide (DMSO). These stock solutions were diluted in Buffer A (100 mM Tris-HCl, 100 mM NaCl, 10 mM CaCl2, 0.05% polyoxyethylene 23 lauryl ether, pH 7.5) to obtain solutions with different hydroxamate concentrations, i.e., assay solutions with different concentrations of the assayed MMP inhibitory compound. The experiment controls contained the same amount of Buffer A/DMSO as the assayed sample, but contained no hydroxamate (or salt thereof).
(§8) The assays from which the IC50 determinations were made were performed as follows. The MMPs were activated with either trypsin or APMA (4-aminophenylmercuric acetate, Sigma Chemical, St. Louis, Mo.). The assayed hydroxamate samples were, incubated in Microfluorrm White Plates (Dynatech, Chantilly, VA) and analyzed on a Perkin Elmer L550 plate reader (Norwalk, Conn.). The excitation wavelength was 328 nm, and the emission wavelength—415 nm. All samples (assayed hydroxamates and controls) were incubated in separate plates at room temperature in the presence of 4 μM of MMP substrate (I). As stated in the previous paragraph, samples containing varying concentrations of the same assayed hydroxamate were prepared. Inhibition was measured as a reduction in fluorescent intensity as a function of MMP inhibitor concentration.

Human recombinant MMP-13 = target: T2, Human recombinant MMP-13 (Homo sapiens, UniProt P45452); assay: as above; type: biochemical
T2 construct: made in house; host or cells: baculovirus / insect cells
Method: as §1, §2
The expressed proenzyme was first purified over a heparin agarose column, and then over a chelating zinc chloride column. The proenzyme was then activated by APMA for use in the assay. Further details on baculovirus expression systems may be found in, for example, Luckow et al., J. Virol., 67, 4566-79 (1993). See also, O'Reilly et al, Baculovirus Expression Vectors: A Laboratory Manual (W. H. Freeman and Co., New York, N.Y., 1992). See also, King et al., The Baculovirus Expression System: A Laboratory Guide (Chapman & Hall, London, England, 1992).
as §3, §4, §5, §6, §7, §8

[1] = value outside parentheses (Ki in parenthesis)

Structure (SMILES)	IC50 (Human recombinant MMP-2; value outside parenthesis) [nM]	IC50 (Human recombinant MMP-13; value outside parenthesis) [nM]	IC50 (Human recombinant MMP-2; [1]) [nM]	IC50 (Human recombinant MMP-13; [1]) [nM]
COCCN1CCC(C(=O)NO)(S(=O)(=O)c2ccc(OCCCn3cc(-c4ccc(F)cc4)cn3)cc2)CC1 [Example 222]	138	13.3		
COCCN1CCC(C(=O)NO)(S(=O)(=O)c2ccc(OCCCn3ccc(-c4ccc(OC)cc4)n3)cc2)CC1 [Example 223]	69.7	11.9		
COc1ccc(C(=O)NC(C)(C)CCOc2ccc(S(=O)(=O)C3(C(=O)NO)CCNCC3)cc2)cc1 [Example 225]	2330	17.8		
CC(C)c1ccc(NC(=O)CCCOc2ccc(S(=O)(=O)C3(C(=O)NO)CCOCC3)cc2)cc1 [Example 227]	2.7	0.2		
COCCN1CCC(C(=O)NO)(S(=O)(=O)c2ccc(OCCCn3cc(-c4cccc(OC)c4)cn3)cc2)CC1 [Example 235]	422	26		
COc1ccc(/C(C#N)=C/CCOc2ccc(S(=O)(=O)C3(C(=O)NO)CCOCC3)cc2)cc1 [Example 236]	7.6	3.4		
O=C(NO)C1(S(=O)(=O)c2ccc(OCCCc3nc(-c4ccc(C(F)(F)F)cc4)no3)cc2)CCOCC1 [Example 239]	237	2.5		
CC(=O)NC(C)(C)CCOc1ccc(S(=O)(=O)C2(C(=O)NO)CCOCC2)cc1 [Example 242]	2720	203		
CN(C)c1c(F)cc(-c2noc(CCCOc3ccc(S(=O)(=O)C4(C(=O)NO)CCOCC4)cc3)n2)cc1F [Example 251]	182	5.4		
COCCN1CCC(C(=O)NO)(S(=O)(=O)c2ccc(OCCCn3nc(C(F)(F)F)cc3C(F)(F)F)cc2)CC1 [Example 253]	1450	32.4		
O=C(CCCOc1ccc(S(=O)(=O)C2(C(=O)NO)CCN(C3CC3)CC2)cc1)C1CCC(O)(c2ccc(Cl)cc2)CC1 (stereo not shown) [Example 255]	51.3	1.9		
COc1ccc2cc(C(=O)CCCCOc3ccc(S(=O)(=O)C4(C(=O)NO)CCN(C5CC5)CC4)cc3)ccc2c1 [Example 265]	40	0.2		
O=C(NO)C1(S(=O)(=O)c2ccc(OCCCc3ccc(-c4ccccc4)cc3)cc2)CCOCC1 [Example 270]	522	8.1		
O=C(O)CCCOc1ccc(S(=O)(=O)C2(C(=O)NO)CCOCC2)cc1 [Example 273]	1010	304		
CCOc1ccc(-c2noc(CCCOc3ccc(S(=O)(=O)C4(C(=O)NO)CCOCC4)cc3)n2)cc1 [Example 275]	115	1.7		
O=C(NO)C1(S(=O)(=O)c2ccc(OCCCS(=O)(=O)N3CCC(Oc4ccc(C(F)(F)F)cc4)CC3)cc2)CCOCC1 [Example 279]	15.9	9.4		
Cc1cc(C)nc(SCCOc2ccc(S(=O)(=O)C3(C(=O)NO)CCOCC3)cc2)n1 [Example 283]	186	29.3		
COc1ccc(OC)c(-c2nnc(CCCOc3ccc(S(=O)(=O)C4(C(=O)NO)CCOCC4)cc3)o2)c1 [Example 291]			100	8

Structure (SMILES)	IC50 (Human recombinant MMP-2; value outside parenthesis) [nM]	IC50 (Human recombinant MMP-13; value outside parenthesis) [nM]	IC50 (Human recombinant MMP-2; [1]) [nM]	IC50 (Human recombinant MMP-13; [1]) [nM]
NS(=O)(=O)CCCOc1ccc(S(=O)(=O)C2(C(=O)NO)CCOCC2)cc1 [Example 296]			1340	565
CC(C)N(Cc1ccc(C(=O)CCCOc2ccc(S(=O)(=O)C3(C(=O)NO)CCOCC3)cc2)cc1)C(C)C [Example 298]			11.9	18.1
O=C(CCCOc1ccc(S(=O)(=O)C2(C(=O)NO)CCOCC2)cc1)c1ccc2ccccc2c1 [Example 299]			3.2	0.1
O=C(CCCOc1ccc(S(=O)(=O)C2(C(=O)NO)CCOCC2)cc1)c1ccccc1-c1ccccc1 [Example 300]			12.5	6.7
CCOc1ccc(-c2nnc(CCCOc3ccc(S(=O)(=O)C4(C(=O)NO)CCOCC4)cc3)o2)cc1OCC [Example 303]			50	9.9
O=C(NO)C1(S(=O)(=O)c2ccc(OCCCc3nnc(-c4ccc5ccccc5c4)o3)cc2)CCOCC1 [Example 304]			139	0.2
O=C(CCCOc1ccc(S(=O)(=O)C2(C(=O)NO)CCOCC2)cc1)Nc1cc2ccccc2cc1O [Example 312]			9.1	0.2
O=C(NO)C1(S(=O)(=O)c2ccc(OCCCc3nc4cc5ccccc5cc4o3)cc2)CCOCC1 [Example 313]			18.1	< 0.1
COc1cc(SC)ccc1C(=O)NNC(=O)CCCOc1ccc(S(=O)(=O)C2(C(=O)NO)CCOCC2)cc1 [Example 314]			7.8	2.5
O=C(NO)C1(S(=O)(=O)c2ccc(OCCCS(=O)(=O)N3CCOCC3)cc2)CCOCC1 [Example 315]			12.8	12.7
COc1ccc(C(=O)[C@H](O)CCOc2ccc(S(=O)(=O)C3(C(=O)NO)CCOCC3)cc2)cc1 [Example 318]			615	97.3
O=C(NO)C1(S(=O)(=O)c2ccc(OCCCN(c3nc4ccccc4s3)c3nc4ccccc4s3)cc2)CCOCC1 [Example 320]			5860	6110
COc1ccc2cc(C(=O)CCCCOc3ccc(S(=O)(=O)C4(C(=O)NO)CCOCC4)cc3)ccc2c1 [Example 328]			61.3	< 0.1
CON(C)C(=O)CCCCOc1ccc(S(=O)(=O)C2(C(=O)NO)CCOCC2)cc1 [Example 329]			103	8.6
COc1ccc(C(=O)NCCCCNc2ccc(S(=O)(=O)C3(C(=O)NO)CCOCC3)cc2)cc1 [Example 331]			386	261
COc1cc2c(cc1OC)C(c1ccccc1)NC(C(=O)OCCCCOc1ccc(S(=O)(=O)C3(C(=O)NO)CCOCC3)cc1)C2 (stereo not shown) [Example 336]			301	19.8
COc1cc2c(cc1OC)CN(CCCCOc1ccc(S(=O)(=O)C3(C(=O)NO)CCOCC3)cc1)C(C)C2 (stereo not shown) [Example 337]			41.9	12.2
